Assay results: US20180251495A1, “Skin-Penetrating Peptides and Compositions and Methods of Use Thereof” (The Regents of the University of California, priority 2015, published 2018)
Like-named read-outs stand apart in the source and are kept apart here. Where a SMILES comes first, the peptide text is derived from it. Bridges are numbered along the chain shown (N, C = ends). Where no end group is shown, it is not given here.

Assays:
[1] = system: HEKa cells (human adult epidermal keratinocytes); assay: MTT cytotoxicity assessment in keratinocytes; format: cell-based; conditions: overnight incubation, MTT
Method: (§1) HEKa cells were cultured in 1× keratinocyte Serum-Free Medium supplemented with 25 U/mL penicillin, 25 μg/mL streptomycin, and 50 μg/mL neomycin. Cultures were grown at 37° C. with 5% CO2. The cytotoxicity of SPPs was assessed using the MTT Cell Proliferation Assay (ATCC, Manassas, Va.). HEKa cells were seeded in 96-well microplates (Corning Inc., Corning, N.Y.) at a density of 5000 cells/well. Cultures were allowed to grow until they reached ˜80% confluency. Cells were then incubated with 200 μL of 10, 5, or 2.5 mg/mL of selected SPPs in media. The pH was adjusted to afford complete dissolution of peptides. Media only was used as a negative control, and media or SPP formulations without cells was used to subtract background. Cytotoxicity was assessed after overnight incubation. Viability was determined according to the manufacturer's recommended protocol using a SAFIRE, XFLUOR4, V4.50 microplate reader (Tecan Group Ltd, Morrisville, N.Y.).
(§2) To assess the potential for skin toxicity, SPPs were incubated with HEKa cells overnight and % viability was determined. HEKa cells were used since keratinocytes are the primary cell-type in the skin, and therefore, represent a good estimate of the potential for skin irritation.

[2] = In vitro skin permeation of radiolabelled SPPs in Franz diffusion cells; format: in vitro ADME, porcine
Method: Test formulations were loaded and incubated as described.
The skin penetrating ability of the selected heptamer (SP7-1 through SP7-5) SPPs was evaluated in comparison with SPACE™. […] Radiolabelled peptides were loaded on Franz diffusion cells (FDCs) and incubated at 37° C. with moderate stirring. After 24 hours, the various skin layers were harvested, dissolved and analyzed using a scintillation counter to determine the amount of peptide.

[3] = for solubility in PBS: PBS pH 8.0
[4] = MTT cytotoxicity assessment in keratinocytes; format: cell-based, human; conditions: human, HEKa cells (adult epidermal keratinocytes); HEKa cells exposed to 5 mg/mL peptide in solution
Method: as §1, §2

[5] = target: human keratin (human); assay: batch affinity chromatography, peptide on Toyopearl resin, human keratin in solution, Langmuir fit
[6] = target: human keratin (human); assay: batch adsorption isotherm (affinity chromatography): peptide coupled to Toyopearl AF-Epoxy-650 resin, human keratin in PBS pH 7.4 in solution, Langmuir fit
[7] = peptide amount after 24 hours, 37° C.

Molecule | toxicity to HEKa cells [1] | Skin permeation, Dermis [2, 7] | Skin permeation, Receptor [2, 7] | Skin permeation, SC + Epidermis [2, 7] | Experimental Qmax [5] | Kd [5] | Kd [6] | further results
C[C@H](N)C(=O)N[C@H]1CSSC[C@@H](C(=O)NCC(=O)O)NC(=O)[C@H](CC(N)=O)NC(=O)[C@H](CCCNC(=N)N)NC(=O)CNC(=O)[C@H]([C@@H](C)O)NC(=O)[C@H](Cc2c[nH]cn2)NC(=O)[C@H]([C@@H](C)O)NC1=O [SP6-1, ACTHTGRNCG] (H-ACTHTGRNCG-OH; disulfide 2-9; N-terminus and C-terminus assumed) | no observable toxicity |  |  |  |  |  |  | toxicity to HEKa cells ([1]; listed as hexamer): non-toxic at concentrations as high as 10 mg/mL
CC(C)C[C@@H]1NC(=O)[C@H]([C@@H](C)O)NC(=O)[C@H](C)NC(=O)[C@H](CO)NC(=O)[C@@H](NC(=O)[C@H](C)N)CSSC[C@@H](C(=O)NCC(=O)O)NC(=O)[C@H](CO)NC(=O)[C@H](Cc2c[nH]cn2)NC(=O)[C@H](CCC(N)=O)NC1=O [SP7-1, ACSATLQHSCG] (H-ACSATLQHSCG-OH; disulfide 2-10; N-terminus and C-terminus assumed) | only toxic when at 10 mg/mL | 149.7 ± 5.6 μg/cm^2 | 42.4 ± 8.5 μg/cm^2 | 819.2 ± 62.2 μg/cm^2 |  |  |  | pH adjusted to achieve complete solubility ([3]; PBS): 8.5
CC(C)C[C@@H]1NC(=O)[C@H](CO)NC(=O)[C@@H](NC(=O)[C@H](C)N)CSSC[C@@H](C(=O)NCC(=O)O)NC(=O)[C@H](CC(N)=O)NC(=O)[C@H](Cc2c[nH]c3ccccc23)NC(=O)[C@H](CC(N)=O)NC(=O)[C@H](C(C)C)NC(=O)[C@H]([C@@H](C)O)NC1=O [SP7-2, ACSLTVNWNCG] (H-ACSLTVNWNCG-OH; disulfide 2-10; N-terminus and C-terminus assumed) |  | 166.7 ± 45.2 μg/cm^2 | 65.0 ± 14.1 μg/cm^2 | 774.0 ± 110.2 μg/cm^2 |  |  |  | solubility in PBS [3]: did not give any solubility problems; toxicity to HEKa cells ([1]; listed as SP-2): some toxicity for all concentrations tested, however, the results were not statistically significant
CC(C)C[C@@H]1NC(=O)[C@@H](NC(=O)[C@H](C)N)CSSC[C@@H](C(=O)NCC(=O)O)NC(=O)[C@H](C)NC(=O)[C@H](CC(N)=O)NC(=O)[C@H](Cc2c[nH]cn2)NC(=O)[C@H](CC(N)=O)NC(=O)[C@H](C(C)C)NC(=O)[C@H](CO)NC1=O [SP7-3, ACLSVNHNACG] (H-ACLSVNHNACG-OH; disulfide 2-10; N-terminus and C-terminus assumed) | significantly toxic (p <0.001) at only 1 mg/mL | 39.5 ± 25.4 μg/cm^2 | 16.9 ± 11.3 μg/cm^2 | 759.9 ± 73.4 μg/cm^2 |  |  |  | solubility in presence of CsA ([3]; in presence of CsA): could not be fully solubilized
C[C@H](N)C(=O)N[C@H]1CSSC[C@@H](C(=O)NCC(=O)O)NC(=O)[C@H](C)NC(=O)[C@H](CC(N)=O)NC(=O)[C@H](CCCNC(=N)N)NC(=O)CNC(=O)[C@H]([C@@H](C)O)NC(=O)[C@H](CO)NC(=O)[C@H]([C@@H](C)O)NC1=O [SP7-4, ACTSTGRNACG] (H-ACTSTGRNACG-OH; disulfide 2-10; N-terminus and C-terminus assumed) | significantly toxic (p <0.001) at only 1 mg/mL | 53.7 ± 31.1 μg/cm^2 | 19.8 ± 19.8 μg/cm^2 | 545.2 ± 79.1 μg/cm^2 |  |  |  | solubility in PBS [3]: did not give any solubility problems
C[C@H](N)C(=O)N[C@H]1CSSC[C@@H](C(=O)NCC(=O)O)NC(=O)[C@H](CC(N)=O)NC(=O)[C@H](Cc2c[nH]cn2)NC(=O)[C@H](CC(N)=O)NC(=O)[C@H]([C@@H](C)O)NC(=O)[C@H](CO)NC(=O)[C@H](C)NC(=O)[C@H](CO)NC1=O [SP7-5, ACSASTNHNCG] (H-ACSASTNHNCG-OH; disulfide 2-10; N-terminus and C-terminus assumed) | significantly toxic (p <0.001) at only 1 mg/mL | 124.3 ± 28.2 μg/cm^2 | 39.5 ± 8.5 μg/cm^2 | 759.9 ± 62.1 μg/cm^2 |  |  |  | solubility in PBS [3]: did not give any solubility problems; viability at 5000 µg/mL [4]: 60.1 ± 2.6%
C[C@H](N)C(=O)N[C@H]1CSSC[C@@H](C(=O)NCC(=O)O)NC(=O)[C@H]([C@@H](C)O)NC(=O)[C@H](CO)NC(=O)[C@H](CCCNC(=N)N)NC(=O)[C@H](C)NC(=O)[C@H](CCC(N)=O)NC(=O)[C@H](Cc2c[nH]cn2)NC(=O)[C@H](C)NC(=O)[C@H](CC(N)=O)NC1=O [SP8-1, ACNAHQARSTCG] (H-ACNAHQARSTCG-OH; disulfide 2-11; N-terminus and C-terminus assumed) | no observable toxicity |  |  |  |  |  |  | toxicity to HEKa cells ([1]; listed as octamer): non-toxic at concentrations as high as 10 mg/mL
C[C@H](N)C(=O)N[C@H]1CSSC[C@@H](C(=O)NCC(=O)O)NC(=O)[C@H](CCC(N)=O)NC(=O)[C@H](Cc2c[nH]cn2)NC(=O)[C@H](CCC(N)=O)NC(=O)[C@H]([C@@H](C)O)NC(=O)[C@H](CO)NC(=O)CNC(=O)[C@H]([C@@H](C)O)NC1=O [SPACE™, ACTGSTQHQCG, reference compound] (H-ACTGSTQHQCG-OH; disulfide 2-10; N-terminus and C-terminus assumed) |  |  |  |  |  |  |  | Skin permeation, Dermis [2]: 200.6 ± 59.3 μg/cm^2; Skin permeation, Receptor [2]: 96.0 ± 31.1 μg/cm^2; Skin permeation, SC + Epidermis [2]: 782.5 ± 84.7 μg/cm^2; viability at 5000 µg/mL [4]: 99.4 ± 3.9%
ACSATLQHSCG (disulfide 2-10 (inferred)) [SP7-1 (…)] |  |  |  |  | 4.16 mg/mL resin | 8.02 µM | 361 µg/mL | 
ACTGSTQHQCG (disulfide 2-10 (inferred)) [SPACE™ peptide (…)] |  |  |  |  | 3.98 mg/mL resin | 10.6 µM | 477 µg/mL | 
ACSLTVNWNCG (disulfide 2-10 (inferred)) [SP7-2 (…)] |  |  |  |  | 4.09 mg/mL resin | 8.73 µM | 393 µg/mL | 
ACLSVNHNACG (disulfide 2-10 (inferred)) [SP7-3 (…)] |  |  |  |  | 4.07 mg/mL resin | 9.4 µM | 423 µg/mL | 
ACTSTGRNACG (disulfide 2-10 (inferred)) [SP7-4 (…)] |  |  |  |  | 3.43 mg/mL resin | 15.8 µM | 716 µg/mL | 
ACSASTNHNCG (disulfide 2-10 (inferred)) [SP7-5 (…)] |  |  |  |  | 4.01 mg/mL resin | 10.1 µM | 456 µg/mL | 
